Assay results taken from ChEMBL document CHEMBL1201862, “PubChem BioAssay data set” (2004).
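Compound exposure: 48 hours, 5 concentrations, 96-well plates. GI50 marks 50% less growth.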 The source made the active and inactive calls. No stated cut-off is given here; in the data, active = GI50 up to about 1.1 µM and inactive = higher.

Experiments:
Assay in all cases: DTP human tumour cell line panel, 48 h
[1] = test system: 786-0
[2] = test system: A498
[3] = test system: ACHN
[4] = test system: BT-549
[5] = test system: CAKI-1
[6] = test system: HCC 2998
[7] = test system: HCT-116
[8] = test system: HOP-62
[9] = test system: LOX IMVI
[10] = test system: M14
[11] = test system: MCF7
[12] = test system: MDA-MB-231
[13] = test system: OVCAR-3
[14] = test system: SF-268
[15] = test system: SK-MEL-28
[16] = test system: SK-MEL-5
[17] = test system: SK-OV-3
[18] = test system: TK-10
[19] = test system: U-251
[20] = test system: DU-145

Measured: GI50

NNC(=S)N/N=C(\C(=O)Nc1cccc(O)c1)C1C(=O)NC(=S)NC1=O
inactive: [1] > 100 µM | [2] > 100 µM | [3] > 100 µM | [4] > 100 µM | [5] > 100 µM | [6] > 100 µM | [7] > 100 µM | [8] > 100 µM | [9] > 100 µM | [10] > 100 µM | [11] > 100 µM | [12] > 100 µM | [13] > 100 µM | [14] > 100 µM | [15] > 100 µM | [16] > 100 µM | [17] > 100 µM | [18] > 100 µM | [19] > 100 µM

CC(Cc1ccc2c(c1)OCO2)N(C)C(=O)C1=CCN(C)CC1 (stereo not drawn)
inactive: [1] > 100 µM | [3] > 100 µM | [4] > 100 µM | [5] > 100 µM | [20] > 100 µM | [6] > 100 µM | [7] > 100 µM | [8] > 100 µM | [9] > 100 µM | [10] > 100 µM | [11] > 100 µM | [12] > 100 µM | [13] > 100 µM | [14] > 100 µM | [15] > 100 µM | [16] > 100 µM | [17] > 100 µM | [18] > 100 µM | [19] > 100 µM

Cc1c(Cl)c(S(N)(=O)=O)cc(S(N)(=O)=O)c1NC(=O)c1ccc(Cl)cc1
inactive: [1] > 100 µM | [2] > 100 µM | [3] > 100 µM | [4] > 100 µM | [5] > 100 µM | [20] > 100 µM | [6] > 100 µM | [7] > 100 µM | [8] > 100 µM | [9] > 100 µM | [10] > 100 µM | [11] > 100 µM | [13] > 100 µM | [14] > 100 µM | [15] > 100 µM | [16] > 100 µM | [17] > 100 µM | [18] > 100 µM | [19] > 100 µM

O=C(O[C@H](/C=C/c1ccccc1)P1(=O)N(Cc2ccccc2)[C@H]2CCCC[C@@H]2N1Cc1ccccc1)c1ccccc1
inactive: [1] 3.7 µM | [2] 7.48 µM | [3] 4.56 µM | [4] 5.56 µM | [5] 2.17 µM | [6] 8.18 µM | [7] 2.79 µM | [8] 5.51 µM | [9] 3.32 µM | [10] 4.5 µM | [11] 3.51 µM | [12] 3.49 µM | [13] 3.94 µM | [14] 4.12 µM | [15] 8.83 µM | [16] 1.87 µM | [17] 5.85 µM | [18] > 100 µM | [19] 4.01 µM

C=C(Br)CN(CC(=C)Br)C(C)=O
inactive: [1] > 100 µM | [2] > 100 µM | [3] > 100 µM | [5] > 100 µM | [20] > 100 µM | [6] > 100 µM | [7] > 100 µM | [8] > 100 µM | [9] > 100 µM | [10] > 100 µM | [11] > 100 µM | [12] > 100 µM | [13] > 100 µM | [14] > 100 µM | [15] > 100 µM | [16] > 100 µM | [17] > 100 µM | [18] > 100 µM | [19] > 100 µM

Cc1ccc2c(c1C)C(=O)/C(=C/c1ccccc1C(=O)O)C2
inactive: [1] > 100 µM | [2] > 100 µM | [3] > 100 µM | [4] 20.7 µM | [5] > 100 µM | [20] > 100 µM | [6] > 100 µM | [7] > 100 µM | [8] > 100 µM | [9] > 100 µM | [10] > 100 µM | [11] > 100 µM | [13] > 100 µM | [14] > 100 µM | [15] > 100 µM | [16] 42.3 µM | [18] > 100 µM | [19] > 100 µM

CC(ON1[C@](C)(c2ccccc2)CC[C@@]1(C)c1ccccc1)c1ccccc1 (stereo partly drawn)
inactive: [1] 52.4 µM | [4] 13.4 µM | [5] 37.8 µM | [20] 34.8 µM | [6] 20.9 µM | [7] 25.4 µM | [8] 83.4 µM | [9] 31.2 µM | [10] 24.2 µM | [12] 43.3 µM | [13] 38.4 µM | [14] 58.5 µM | [15] 53.2 µM | [16] 30 µM | [17] > 100 µM | [18] > 100 µM | [19] 31 µM

CC#CCCCC1(C)CCNC1=S (stereo not drawn)
inactive: [1] > 10 µM | [3] > 10 µM | [4] > 10 µM | [20] > 10 µM | [6] > 10 µM | [9] > 10 µM | [10] > 10 µM | [11] > 10 µM | [13] > 10 µM | [14] > 10 µM | [17] > 10 µM | [18] > 10 µM | [19] > 10 µM
